What was measured:
[1] = test system: INS-1 cells expressing IRE1α under Dox control; assay: RNA-Seq profiling of INS-1 cells conditionally overexpressing IRE1α; assay type: cell-based, rat; conditions: 20 μM, 5 ng/mL Dox
Description: Next, to systematically compare the transcriptomic effects of PAIR1 and KIRA9, we profiled INS-1 cells that conditionally overexpress IRE1α by RNA Seq. As above (FIGS. 4A-4K), IRE1α overexpression was induced with doxycycline (Dox) and cells were treated with either DMSO, or equivalent concentrations of PAIR1 or KIRA9. Total RNA was submitted for sequencing across entire transcripts. The dense coverage of this dataset enabled us to distinguish the endogenous rat IRE1α expression from the induced mouse IRE1α transgene; there was greater than 10-fold induction of transgene expression with doxycycline (FIG. 22). Dense coverage across the Xbp1 locus also enabled quantification of XBP1 splicing based on the reduced density of reads mapping to the noncanonical XBP1 intron. Consistent with measurements of XBP1 splicing by isoform-specific PCR (FIG. 4C), overexpression induced XBP1 splicing was preserved in both DMSO and PAIR1-treated cells, but blocked in KIRA9-treated cells at 4 hours (FIGS. 23A-23B).
RNA Isolation and Preparation
Isogenic IRE1α-overexpressing INS-1 cells were pre-treated with inhibitors for 1 h followed by addition of Dox 5 ng/mL for 4 h and 24 h as indicated. All conditions for RNAseq analysis were performed in three biological replicates. RNA was isolated from whole cells using Qiagen RNeasy with gDNA eliminator kit. RNA purity was determined using a NanaPhotometer spectrometer (IMPLEN, CA, USA). RNA integrity and quantitation were assessed using the RNA Nano 6000 Assay Kit of the Bioanalyzer 2100 system (Agilent Technologies, CA, USA).
Quantification of Gene Expression Level
HTSeq v0.6.1 was used to count the reads numbers mapped to each gene. And then FPKM of each gene was calculated based on the length of the gene and reads count mapped to this gene.
Differential Expression Analysis
Differential expression analysis of two conditions/groups (three biological replicates per condition) was performed using the DESeq R package (1.18.0). DESeq provide statistical routines for determining differential expression in digital gene expression data using a model based on the negative binomial distribution. The resulting P-values were adjusted using the Benjamini and Hochberg's approach for controlling the false discovery rate. Genes with an adjusted P-value<0.05 found by DESeq were assigned as differentially expressed.

XBP1 mRNA splicing = XBP1 mRNA splicing in INS-1 cells conditionally overexpressing IRE1α (Dox); assay type: cell-based, rat; conditions: 5 ng/mL Dox; 20 μM for XBP1s immunoblot
Description: RNA Isolation, Quantitative Real-Time PCR, and Primers
INS-1 or isogenic IRE1α-overexpressing INS-1 cells were plated onto Poly-D-Lysine coated tissue culture plate and grown for 48 hrs. Inhibitors or DMSO were added to the media and incubated for 1 hour at 37° C. with 5% CO2 prior to addition of ER stress agents or Dox as indicated. RNA was isolated from whole cells using either QIAGEN RNeasy Mini kits or Trizol (Invitrogen) and reverse transcribed as above to obtain total cDNA. Then, XBP-1 primers were used to amplify an XBP-1 amplicon spanning the 26 nt intron from the cDNA samples in a regular 3-step PCR. Thermal cycles were: 5 min at 95° C., 30 cycles of 30 s at 95° C., 30 s at 60° C., and 1 min at 72° C., followed by 72° C. for 15 min, and hold at 4° C. Primers used for XBP-1 mRNA splicing were as follows: sense primer XBP1.3 S (5′ […]-3′ (SEQ ID NO:2)) and antisense primer XBP1.2AS (5′-[…]-3′ (SEQ ID NO:3)). PCR fragments were then digested by PstI, resolved on 3% agarose gels, stained with EtBr and quantified by densitometry using ImageJ (NIH). For standard mRNA detection, generally […] total RNA was reverse transcribed using the QuantiTect Reverse Transcription Kit (QIAGEN). For qPCR, we used SYBR green (QIAGEN) and StepOnePlus Real-Time PCR System (Applied Biosystems). Thermal cycles were: 5 min at 95° C., 40 cycles of 15 sec at 95° C., 30 sec at 60° C. Gene expression levels were normalized to Beta Actin. Primers used for qPCR of RIDD targets were as follows: Beta Actin Fwd: 5′-[…]-3′ (SEQ ID NO:4), Beta Actin Rev: 5′-[…]-3′ (SEQ ID NO:5), Insulin 1 Fwd: 5′-GTCCTCTGGGAGCCCAAG-3′ (SEQ ID NO:6), Insulin 1 Rev: 5′-ACAGAGCCTCCACCAGG-3′ (SEQ ID NO:7), Insulin 2 Fwd: 5′-ATCCTCTGGGAGCCCCGC-3′ (SEQ ID NO:8), Insulin 2 Rev: 5′-AGAGAGCTTCCACCAAG-3′ (SEQ ID NO:9), Blos1 Fwd: 5′-[…]-3′ (SEQ ID NO:10), and Blos1 Rev: 5′-[…]-3′ (SEQ ID NO:11).
(§1) RNA was extracted using Trizol (Invitrogen), DNaseI treated, and cDNA products encompassing the intron amplified by QuantiTect Reverse Transcription Kit (Qiagen). sense Primer rXBP Forward (5′-[…]-3′ (SEQ ID NO:12)) and antisense primer rXBP Reverse (5′-[…]-3′ (SEQ ID NO:13)) were used. PCR fragments were digested by PstI, resolved on 3% agarose gels, stained with EtBr, and quantified by densitometry.
as §1, with “XBP1 splicing for FIGS. 33A-33F: RNA” for “RNA”, “(Invitrogen),” for “(Invitrogen), DNaseI treated, and”, “(Qiagen). Sense” for “(Qiagen). sense”, “rXBP splicing” for “rXBP”

Row | Structure (SMILES) | TXNIP upregulation [1] | downregulation of RIDD genes [1] | global decrease of secretome transcripts [1] | upregulation of apoptosis genes [1] | XBP1 splicing (read coverage) ([1]; 4 hours) | XBP1 splicing (read coverage) ([1]; 24 hours) | XBP1 mRNA splicing and expression of Xbp1s (XBP1 mRNA splicing)
1 | O=S(=O)(CCC(F)(F)F)Nc1ccc(Oc2ncccc2-c2ccnc(NC3CCCNC3)n2)c2ccccc12 (centres unmarked) [KIRA9, 3,3,3-trifluoro-N-(4-(3-(2-(piperidin-3-ylamino)pyrimidin-4-yl)pyridin-2-yloxy)naphthalen-1-yl)propane-1-sulfonamide] | blocked | antagonized | blocked | largely blunted | blocked | partially decreased | more vigorously inhibited these outputs
2 | O=S(=O)(CC(F)(F)F)Nc1ccc(Oc2ncccc2-c2ccnc(N[C@H]3CCCNC3)n2)c2ccccc12 (stereo in doubt) [PAIR1, 2,2,2-trifluoro-N-(4-(3-(2-(piperidin-3-ylamino)pyrimidin-4-yl)pyridin-2-yloxy)naphthalen-1-yl)ethanesulfonamide] | blocked | antagonized | blocked | largely blunted | preserved | preserved | largely preserved
